Target: Human TRPA1 (Homo sapiens, UniProt O75762)
Assay: cell-based
Conditions: for EC50: pEC50 values for TRPA1 agonism

Human TRPA1, sequence (O75762 whole entry, looked up): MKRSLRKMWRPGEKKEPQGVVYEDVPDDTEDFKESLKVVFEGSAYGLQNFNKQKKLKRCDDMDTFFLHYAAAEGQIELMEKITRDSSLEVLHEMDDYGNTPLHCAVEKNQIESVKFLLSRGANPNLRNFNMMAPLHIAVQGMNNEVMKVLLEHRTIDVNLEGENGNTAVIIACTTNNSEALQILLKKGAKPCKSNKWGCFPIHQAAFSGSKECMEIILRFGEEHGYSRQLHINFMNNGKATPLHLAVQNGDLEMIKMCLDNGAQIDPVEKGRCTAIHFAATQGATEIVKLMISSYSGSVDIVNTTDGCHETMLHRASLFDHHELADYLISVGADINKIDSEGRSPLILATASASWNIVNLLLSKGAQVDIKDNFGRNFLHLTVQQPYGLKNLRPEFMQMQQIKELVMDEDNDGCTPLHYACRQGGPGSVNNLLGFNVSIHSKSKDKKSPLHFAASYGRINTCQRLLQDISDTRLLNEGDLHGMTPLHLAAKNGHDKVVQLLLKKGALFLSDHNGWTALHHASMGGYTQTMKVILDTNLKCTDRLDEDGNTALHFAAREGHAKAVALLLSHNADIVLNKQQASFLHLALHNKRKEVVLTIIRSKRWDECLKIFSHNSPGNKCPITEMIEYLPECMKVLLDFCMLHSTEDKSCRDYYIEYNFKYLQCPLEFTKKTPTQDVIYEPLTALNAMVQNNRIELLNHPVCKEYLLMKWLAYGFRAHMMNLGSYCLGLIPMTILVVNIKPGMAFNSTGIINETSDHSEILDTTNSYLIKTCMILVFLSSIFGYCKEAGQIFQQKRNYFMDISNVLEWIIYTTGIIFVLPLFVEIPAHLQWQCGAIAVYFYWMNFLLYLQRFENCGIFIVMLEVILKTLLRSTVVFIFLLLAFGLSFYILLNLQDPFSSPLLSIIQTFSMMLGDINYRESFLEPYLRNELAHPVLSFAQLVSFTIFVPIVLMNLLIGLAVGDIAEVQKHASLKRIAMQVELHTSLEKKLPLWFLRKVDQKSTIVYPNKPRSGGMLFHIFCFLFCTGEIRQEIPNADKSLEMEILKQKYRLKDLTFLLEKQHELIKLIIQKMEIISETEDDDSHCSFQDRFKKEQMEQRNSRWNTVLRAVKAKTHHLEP

In the case of `COC(=O)c1ccc2c(c1)C=Nc1ccccc1C2` [Compound 1], the EC50 is reported as 93.3 nM.
`COC(=O)c1ccc2c(c1)Cc1ccccc1C=N2` [Compound 3] was tested, and the “pEC50 values for TRPA1 agonism” value was 9.24.
`O=C(O)c1cccc2c1Cc1ccccc1N=C2` [Compound 4] showed an EC50 of 363 nM.
`CCN(CC)C(=O)c1cccc2c1Cc1ccccc1N=C2` [Compound 5] was tested, and the EC50 was 44.7 nM.
`COCCCNC(=O)c1cccc2c1Cc1ccccc1N=C2` [Compound 6] showed an EC50 of 8.71 nM.
Molecule `COCCCNC(=O)c1cccc2c1Cc1ccccc1N=C2` [Compound 7] has an EC50 of 5.89 nM.
`CN1CCN(C(=O)c2ccc3c(c2)Cc2ccccc2C=N3)CC1` [Compound 8] gave an EC50 of 3.16 nM.
`COC(=O)c1ccc2c(c1)Oc1ccccc1N=C2` [Compound 10] was tested, and the “pEC50 values for TRPA1 agonism” value was 7.28.
Work on `COC(=O)c1cccc2c1Oc1ccccc1N=C2` [Compound 11] yielded an EC50 of 0.0813 nM.
For `COC(=O)c1cccc2c1Oc1ccccc1N=C2` [Compound 12], the “pEC50 values for TRPA1 agonism” value was 10.22.
`CCCCOC(=O)c1cccc2c1Cc1ccccc1N=C2` [Compound 13] was tested, and the “pEC50 values for TRPA1 agonism” value was 8.07.
Molecule `CCCCOC(=O)c1cccc2c1Cc1ccccc1N=C2` [Compound 14] has an EC50 of 5.62 nM.
`CN1CCN(C(=O)c2ccc3c(c2)Cc2ccccc2N=C3)CC1` [Compound 15] showed an EC50 of 1620 nM.
For `COC(=O)c1cccc2c1Cc1ccccc1C=N2` [Compound 17], the “pEC50 values for TRPA1 agonism” value was 9.24.
`COC(=O)c1cccc2c1N=Cc1ccccc1C2` [Compound 18] gave an EC50 of 27.5 nM.
Molecule `COC(=O)c1cccc2c1C=Nc1ccccc1C2` [Compound 19] has an EC50 of 28.8 nM.
Work on `COC(=O)c1ccc2c(c1)N=Cc1ccccc1C2` [Compound 20] yielded an EC50 of 28.2 nM.
With `NC(=O)c1cccc2c1Oc1ccccc1N=C2` [Compound 21] the “pEC50 values for TRPA1 agonism” value was 10.12.
In the case of `COC(=O)c1cccc2c1Oc1ccccc1C=N2` [Compound 23], the “pEC50 values for TRPA1 agonism” value is reported as 9.93.
`COC(=O)c1cccc2c1Oc1ccccc1C=N2` [Compound 24] gave an EC50 of 0.0741 nM.
`COC(=O)c1cccc2c1Cc1ccccc1C=N2` [Compound 25] was tested, and the EC50 was 0.447 nM.
In the case of `COC(=O)c1cccc2c1N=Cc1ccccc1C2` [Compound 26], the EC50 is reported as 38 nM.
